Assay results published in US20260070895A1, “CRYSTALLINE FORMS” (QUIMATRYX, S.L., priority 2022, published 2026).

Experiments:
[1] = Photostability at solid state (chemical purity by HPLC after illumination); format: physicochemical; details: solid-state; for degradation (in words): up to 171 hours
Protocol: (§1) The method for determining purity by HPLC—used throughout these examples—used the following parameters:
(§2) The photostability of novel crystalline forms of QTX125 was assessed at solid state and in solution. Where ‘forced illumination’ conditions were used, samples were illuminated at 12 Klux/hour and 2.8 UV W/m^2/hour. Samples were stored at a temperature of 30° C. Following incubation, the chemical purity of QTX125 was measured by HPLC.
(§3) The following index is provided to aid navigation of the data presented in Tables 3.1.1 to 3.3.6: • 3.1.x—Assessment of the photostability of QTX125 Form 2. • 3.2.x—Assessment of the photostability of amorphous QTX125. • 3.3.x—Assessment of the photostability of the QTX125 1:2 L-Lysine adduct. • 3.x.1—Samples (at solid state) stored in unsealed clear glass bottles, subject to forced illumination. • 3.x.2—Samples (at solid state) sealed under nitrogen in clear glass bottles, subject to forced illumination. • 3.x.3—Samples (at solid state) sealed under nitrogen in amber glass bottles, illuminated under ambient laboratory conditions • 3.x.4—Samples (at solid state) sealed under nitrogen in amber glass bottles, subject to forced illumination. • 3.x.5—Samples (in solution) sealed under nitrogen in amber glass bottles, illuminated under ambient laboratory conditions. • 3.x.6—Samples (in solution) sealed under nitrogen in amber glass bottles, subject to forced illumination.

[2] = Photostability in solution (THF and water), HPLC; format: physicochemical; details: in solution (THF and water), sealed under nitrogen in amber glass bottles; for degradation (in words): up to 171 hours
Protocol: as §1, §2, §3

[3] = sealed under nitrogen in amber glass bottles, ambient laboratory conditions, 0 hours
[4] = sealed under nitrogen in amber glass bottles, ambient laboratory conditions, 3 hours
[5] = sealed under nitrogen in amber glass bottles, ambient laboratory conditions, 50 hours
[6] = sealed under nitrogen in amber glass bottles, ambient laboratory conditions, 171 hours
[7] = sealed under nitrogen in amber glass bottles, ambient laboratory conditions, 171 hours, listed as Amorphous
[8] = sealed under nitrogen in amber glass bottles, forced illumination, 0 hours
[9] = sealed under nitrogen in amber glass bottles, forced illumination, 3 hours
[10] = sealed under nitrogen in amber glass bottles, forced illumination, 50 hours
[11] = sealed under nitrogen in amber glass bottles, forced illumination, 171 hours
[12] = sealed under nitrogen in amber glass bottles, forced illumination, 171 hours, listed as Amorphous
[13] = sealed under nitrogen in clear glass bottles, forced illumination
[14] = sealed under nitrogen in clear glass bottles, forced illumination, 0 hours
[15] = sealed under nitrogen in clear glass bottles, forced illumination, 3 hours
[16] = sealed under nitrogen in clear glass bottles, forced illumination, 50 hours
[17] = sealed under nitrogen in clear glass bottles, forced illumination, 171 hours
[18] = unsealed clear glass bottles, forced illumination
[19] = unsealed clear glass bottles, forced illumination, 0 hours
[20] = unsealed clear glass bottles, forced illumination, 3 hours
[21] = unsealed clear glass bottles, forced illumination, 50 hours
[22] = unsealed clear glass bottles, forced illumination, 171 hours
[23] = ambient laboratory conditions, 0 hours
[24] = ambient laboratory conditions, 3 hours
[25] = ambient laboratory conditions, 50 hours
[26] = ambient laboratory conditions, 171 hours
[27] = ambient laboratory conditions, 171 hours, listed as Amorphous
[28] = forced illumination, 171 hours, listed as Amorphous

With O=C(NO)c1ccc(CNC(=O)c2[nH]c(-c3ccc(O)cc3)cc2-c2ccoc2)cc1 [amorphous QTX125, 3-(3-Furyl)-N-{4-[(hydroxyamino)carbonyl]benzyl}-5-(4-hydroxyphenyl)-1H-pyrrole-2-carboxamide] the “HPLC peak area, QTX125 RRT 1.00” value [1, 3] was 96.74%, the “HPLC peak area, RRT 1.04” value [1, 3] was 1.32% and the “HPLC peak area, RRT 1.12” value [1, 3] was 0.35%. The “HPLC peak area, QTX125 RRT 1.00” value [1, 4] was 96.75%, the “HPLC peak area, RRT 1.04” value [1, 4] was 1.26% and the “HPLC peak area, RRT 1.12” value [1, 4] was 0.36%. For the same compound, the “HPLC peak area, QTX125 RRT 1.00” value [1, 5] was 96.61%, the “HPLC peak area, RRT 1.04” value [1, 5] was 0.71% and the “HPLC peak area, RRT 1.12” value [1, 5] was 0.39%. For the same compound, the “HPLC peak area, QTX125 RRT 1.00” value [1, 6] was 96.16%, the “HPLC peak area, RRT 1.04” value [1, 6] was 1.46% and the “HPLC peak area, RRT 1.12” value [1, 6] was 0.39%. For the same compound, the “HPLC peak area, QTX125 RRT 1.00” value [1, 7] was 96.16%, the “HPLC peak area, RRT 1.04” value [1, 7] was 1.46% and the “degradation (in words)” value ([1]; sealed under nitrogen in amber glass bottles, ambient laboratory conditions) was “evidence of slight degradation”. For the same compound, the “HPLC peak area, QTX125 RRT 1.00” value [1, 8] was 96.74%, the “HPLC peak area, RRT 1.04” value [1, 8] was 1.32% and the “HPLC peak area, RRT 1.12” value [1, 8] was 0.35%. For the same compound, the “HPLC peak area, QTX125 RRT 1.00” value [1, 9] was 96.94%, the “HPLC peak area, RRT 1.04” value [1, 9] was 1.04% and the “HPLC peak area, RRT 1.12” value [1, 9] was 0.35%. The “HPLC peak area, QTX125 RRT 1.00” value [1, 10] was 96.12%, the “HPLC peak area, RRT 1.04” value [1, 10] was 1.09% and the “HPLC peak area, RRT 1.12” value [1, 10] was 0.38%. The “HPLC peak area, QTX125 RRT 1.00” value [1, 11] was 94.43%, the “HPLC peak area, RRT 1.04” value [1, 11] was 1.70% and the “HPLC peak area, RRT 1.12” value [1, 11] was 0.47%. The “HPLC peak area, QTX125 RRT 1.00” value [1, 12] was 94.43%, the “HPLC peak area, RRT 1.04” value [1, 12] was 1.70% and the “HPLC peak area, RRT 1.12” value [1, 12] was 0.47%. For the same compound, the “degradation (in words)” value ([1]; sealed under nitrogen in amber glass bottles, forced illumination) was “degrades slightly”, the “colour change of the solid material” value [1, 13] was “change in colour from off white/beige to brown” and the “HPLC peak area, QTX125 RRT 1.00” value [1, 14] was 96.74%. For the same compound, the “HPLC peak area, RRT 1.04” value [1, 14] was 1.32%, the “HPLC peak area, RRT 1.12” value [1, 14] was 0.35% and the “HPLC peak area, QTX125 RRT 1.00” value [1, 15] was 95.97%. The “HPLC peak area, RRT 1.04” value [1, 15] was 1.51%, the “HPLC peak area, RRT 1.12” value [1, 15] was 0.38% and the “HPLC peak area, QTX125 RRT 1.00” value [1, 16] was 89.64%. The “HPLC peak area, RRT 1.04” value [1, 16] was 4.38%, the “HPLC peak area, RRT 1.12” value [1, 16] was 0.60% and the “HPLC peak area, QTX125 RRT 1.00” value [1, 17] was 84.46%. For the same compound, the “HPLC peak area, RRT 1.04” value [1, 17] was 6.61%, the “HPLC peak area, RRT 1.12” value [1, 17] was 0.90% and the “degradation (in words)” value [1, 13] was “degrades under forced illumination to two principal components”. For the same compound, the “colour change of the solid material” value [1, 18] was “change in colour from off white/beige to brown”, the “HPLC peak area, QTX125 RRT 1.00” value [1, 19] was 96.74% and the “HPLC peak area, RRT 1.04” value [1, 19] was 1.32%. For the same compound, the “HPLC peak area, RRT 1.12” value [1, 19] was 0.35%, the “HPLC peak area, QTX125 RRT 1.00” value [1, 20] was 95.81% and the “HPLC peak area, RRT 1.04” value [1, 20] was 1.61%. For the same compound, the “HPLC peak area, RRT 1.12” value [1, 20] was 0.39%, the “HPLC peak area, QTX125 RRT 1.00” value [1, 21] was 88.70% and the “HPLC peak area, RRT 1.04” value [1, 21] was 4.64%. The “HPLC peak area, RRT 1.12” value [1, 21] was 0.63%, the “HPLC peak area, QTX125 RRT 1.00” value [1, 22] was 83.01% and the “HPLC peak area, RRT 1.04” value [1, 22] was 7.15%. The “HPLC peak area, RRT 1.12” value [1, 22] was 0.90%, the “degradation (in words)” value [1, 18] was “degrades under forced illumination to two principal components” and the “HPLC peak area, QTX125 RRT 1.00” value [2, 23] was 96.74%. The “HPLC peak area, RRT 1.04” value [2, 23] was 1.32%, the “HPLC peak area, RRT 1.12” value [2, 23] was 0.35% and the “HPLC peak area, QTX125 RRT 1.00” value [2, 24] was 92.10%. For the same compound, the “HPLC peak area, RRT 1.04” value [2, 24] was 0.94%, the “HPLC peak area, RRT 1.12” value [2, 24] was 0.48% and the “HPLC peak area, QTX125 RRT 1.00” value [2, 25] was 95.89%. For the same compound, the “HPLC peak area, RRT 1.04” value [2, 25] was 1.03%, the “HPLC peak area, RRT 1.12” value [2, 25] was 0.54% and the “HPLC peak area, QTX125 RRT 1.00” value [2, 26] was 91.98%. For the same compound, the “HPLC peak area, RRT 1.04” value [2, 26] was 2.30%, the “HPLC peak area, RRT 1.12” value [2, 26] was 1.14% and the “HPLC peak area, QTX125 RRT 1.00” value [2, 27] was 91.98%. The “HPLC peak area, RRT 1.04” value [2, 27] was 2.30%, the “HPLC peak area, RRT 1.12” value [2, 27] was 1.14% and the “degradation (in words)” value ([2]; ambient laboratory conditions) was “degrades”. The “HPLC peak area, QTX125 RRT 1.00” value ([2]; forced illumination, 0 hours) was 96.74%, the “HPLC peak area, RRT 1.04” value ([2]; forced illumination, 0 hours) was 1.32% and the “HPLC peak area, RRT 1.12” value ([2]; forced illumination, 0 hours) was 0.35%. The “HPLC peak area, QTX125 RRT 1.00” value ([2]; forced illumination, 3 hours) was 96.31%, the “HPLC peak area, RRT 1.04” value ([2]; forced illumination, 3 hours) was 0.92% and the “HPLC peak area, RRT 1.12” value ([2]; forced illumination, 3 hours) was 0.46%. For the same compound, the “HPLC peak area, QTX125 RRT 1.00” value ([2]; forced illumination, 50 hours) was 94.55%, the “HPLC peak area, RRT 1.04” value ([2]; forced illumination, 50 hours) was 1.27% and the “HPLC peak area, RRT 1.12” value ([2]; forced illumination, 50 hours) was 0.55%. The “HPLC peak area, QTX125 RRT 1.00” value ([2]; forced illumination, 171 hours) was 87.29%, the “HPLC peak area, RRT 1.04” value ([2]; forced illumination, 171 hours) was 2.33% and the “HPLC peak area, RRT 1.12” value ([2]; forced illumination, 171 hours) was 1.03%. The “HPLC peak area, QTX125 RRT 1.00” value [2, 28] was 87.29%, the “HPLC peak area, RRT 1.04” value [2, 28] was 2.33% and the “HPLC peak area, RRT 1.12” value [2, 28] was 1.03%. The “degradation (in words)” value ([2]; forced illumination) was “degrades”.
